Laboratory results reported in ChEMBL document CHEMBL1949518, “Synthesis and biological evaluation of some new 2-pyrazolines bearing benzene sulfonamide moiety as potential anti-inflammatory and anti-cancer agents” (Eur J Med Chem, 2011).

Assays:
Type in all cases: functional
HCC 2998 = test: Antiproliferative activity against human HCC2998 cells assessed as cell growth at 10^-5 M after 48 hrs by SRB assay relative to control; conditions: HCC 2998, 48 h, read-out: Activity
MDA-MB-231 = test: Antiproliferative activity against human MDA-MB-231 cells assessed as cell growth at 10^-5 M after 48 hrs by SRB assay relative to control; conditions: MDA-MB-231, 48 h, read-out: Activity
HCT-15 = test: Antiproliferative activity against human HCT15 cells assessed as cell growth at 10^-5 M after 48 hrs by SRB assay relative to control; conditions: HCT-15, 48 h, read-out: Activity
Malme-3M = test: Antiproliferative activity against human MALME-3M cells assessed as cell growth at 10^-5 M after 48 hrs by SRB assay relative to control; conditions: read-out: Activity
NCI-H23 [1] = test: Antiproliferative activity against human NCI-H23 cells assessed as cell growth at 10^-5 M after 48 hrs by SRB assay relative to control; conditions: NCI-H23, 48 h, read-out: Activity
LOX IMVI = test: Antiproliferative activity against human LOXIMVI cells assessed as cell growth at 10^-5 M after 48 hrs by SRB assay relative to control; conditions: read-out: Activity
Rattus norvegicus [2] = test: Antiinflammatory activity in Wistar rat assessed as inhibition of carrageenan-induced paw edema at 20 mg/kg, po administered 30 mins before carrageenan challenge measured after 5 hrs
HT-29 = test: Antiproliferative activity against human HT-29 cells assessed as cell growth at 10^-5 M after 48 hrs by SRB assay relative to control; conditions: HT-29, 48 h, read-out: Activity
DU-145 = test: Antiproliferative activity against human DU145 cells assessed as cell growth at 10^-5 M after 48 hrs by SRB assay relative to control; conditions: DU-145, 48 h, read-out: Activity
SR = test: Antiproliferative activity against human SR cells assessed as cell growth at 10^-5 M after 48 hrs by SRB assay relative to control; conditions: read-out: Activity
SF-539 = test: Antiproliferative activity against human SF539 cells assessed as cell growth at 10^-5 M after 48 hrs by SRB assay relative to control; conditions: SF-539, 48 h, read-out: Activity
A498 [3] = test: Antiproliferative activity against human A498 cells assessed as cell growth at 10^-5 M after 48 hrs by SRB assay relative to control; conditions: A498, 48 h, read-out: Activity
OVCAR-4 = test: Antiproliferative activity against human OVCAR4 cells assessed as cell growth at 10^-5 M after 48 hrs by SRB assay relative to control; conditions: OVCAR-4, 48 h, read-out: Activity
SN12C = test: Antiproliferative activity against human SN12C cells assessed as cell growth at 10^-5 M after 48 hrs by SRB assay relative to control; conditions: read-out: Activity
Rattus norvegicus [4] = test: Antiinflammatory activity in Wistar rat assessed as inhibition of carrageenan-induced paw edema at 20 mg/kg, po administered 30 mins before carrageenan challenge measured after 3 hrs
CCRF-CEM = test: Antiproliferative activity against human CCRF-CEM cells assessed as cell growth at 10^-5 M after 48 hrs by SRB assay relative to control; conditions: read-out: Activity
SK-MEL-28 = test: Antiproliferative activity against human SK-MEL-28 cells assessed as cell growth at 10^-5 M after 48 hrs by SRB assay relative to control; conditions: SK-MEL-28, 48 h, read-out: Activity
K562 [5] = test: Antiproliferative activity against human K562 cells assessed as cell growth at 10^-5 M after 48 hrs by SRB assay relative to control; conditions: K562, 48 h, read-out: Activity
NCI/ADR-RES = test: Antiproliferative activity against human NCI/ADR-RES cells assessed as cell growth at 10^-5 M after 48 hrs by SRB assay relative to control; conditions: read-out: Activity
SW-620 = test: Antiproliferative activity against human SW620 cells assessed as cell growth at 10^-5 M after 48 hrs by SRB assay relative to control; conditions: SW-620, 48 h, read-out: Activity
SNB-75 = test: Antiproliferative activity against human SNB75 cells assessed as cell growth at 10^-5 M after 48 hrs by SRB assay relative to control; conditions: SNB-75, 48 h, read-out: Activity
[6] = Antiproliferative activity against human Hs 578T cells assessed as cell growth at 10^-5 M after 48 hrs by SRB assay relative to control; conditions: read-out: Activity
786-0 = test: Antiproliferative activity against human 786-0 cells assessed as cell growth at 10^-5 M after 48 hrs by SRB assay relative to control; conditions: 786-0, 48 h, read-out: Activity
SF-268 = test: Antiproliferative activity against human SF268 cells assessed as cell growth at 10^-5 M after 48 hrs by SRB assay relative to control; conditions: SF-268, 48 h, read-out: Activity
MCF7 = test: Antiproliferative activity against human MCF7 cells assessed as cell growth at 10^-5 M after 48 hrs by SRB assay relative to control; conditions: MCF7, 48 h, read-out: Activity
RPMI-8226 = test: Antiproliferative activity against human RPMI8226 cells assessed as cell growth at 10^-5 M after 48 hrs by SRB assay relative to control; conditions: RPMI-8226, 48 h, read-out: Activity
SK-MEL-2 = test: Antiproliferative activity against human SK-MEL-2 cells assessed as cell growth at 10^-5 M after 48 hrs by SRB assay relative to control; conditions: SK-MEL-2, 48 h, read-out: Activity
K562 [7] = test: Anticancer activity against human K562 cells after 48 hrs by SRB assay; conditions: K562, 48 h
NCI-H23 [8] = test: Anticancer activity against human NCI-H23 cells after 48 hrs by SRB assay; conditions: NCI-H23, 48 h
A549 = test: Anticancer activity against human A549 cells after 48 hrs by SRB assay; conditions: A549, 48 h
A498 [9] = test: Anticancer activity against human A498 cells after 48 hrs by SRB assay; conditions: A498, 48 h; for CC50: read-out: LC50 (the source's name)
HL-60(TB) = test: Anticancer activity against human HL-60(TB) cells after 48 hrs by SRB assay; conditions: HL-60, 48 h
PC-3 = test: Anticancer activity against human PC3 cells after 48 hrs by SRB assay; conditions: PC-3, 48 h; for CC50: read-out: LC50 (the source's name)
HOP-92 = test: Anticancer activity against human HOP92 cells after 48 hrs by SRB assay; conditions: HOP-92, 48 h
NCI-H522 = test: Anticancer activity against human NCI-H522 cells after 48 hrs by SRB assay; conditions: NCI-H522, 48 h

Structure (SMILES): COc1ccc(C2CC(c3c(O)cc(C)c(Cl)c3C)=NN2c2ccc(S(N)(=O)=O)cc2)cc1 (stereo unspecified)
- growth at 10 µM (HCC 2998): 97.6%
- growth at 10 µM (MDA-MB-231): 71%
- growth at 10 µM (HCT-15): 92.2%
- growth at 10 µM (Malme-3M): 138%
- growth at 10 µM (NCI-H23 [1]): 108%
- growth at 10 µM (LOX IMVI): 70.6%
- inhibition in vivo at 20 mg/kg (Rattus norvegicus [2]): 36.4%
- growth at 10 µM (HT-29): 109%
- growth at 10 µM (DU-145): 92.4%
- growth at 10 µM (SR): 41.5%
- growth at 10 µM (SF-539): 92.3%
- growth at 10 µM (A498 [3]): 93.2%
- growth at 10 µM (OVCAR-4): 86.4%
- growth at 10 µM (SN12C): 99.4%
- inhibition in vivo at 20 mg/kg (Rattus norvegicus [4]): 46.7%
- growth at 10 µM (CCRF-CEM): 38.7%
- growth at 10 µM (SK-MEL-28): 96.7%
- growth at 10 µM (K562 [5]): 44.1%
- growth at 10 µM (NCI/ADR-RES): 101%
- growth at 10 µM (SW-620): 94.8%
- growth at 10 µM (SNB-75): 85.1%
- growth at 10 µM [6]: 99%
- growth at 10 µM (786-0): 92.5%
- growth at 10 µM (SF-268): 76.1%
- growth at 10 µM (MCF7): 71.6%
- growth at 10 µM (RPMI-8226): 63.9%
- growth at 10 µM (SK-MEL-2): 94.3%

Structure (SMILES): Cc1cc(O)c(C2=NN(c3ccc(S(N)(=O)=O)cc3)C(c3ccc(Cl)cc3)C2)c(C)c1Cl (stereo unspecified)
- growth at 10 µM (HCC 2998): 94.1%
- growth at 10 µM (MDA-MB-231): 103%
- growth at 10 µM (HCT-15): 80.5%
- growth at 10 µM (Malme-3M): 157%
- growth at 10 µM (NCI-H23 [1]): 79.3%
- GI50 (K562 [7]): 14 µM
- TGI (K562 [7]): 44.8 µM
- growth at 10 µM (LOX IMVI): 82.8%
- inhibition in vivo at 20 mg/kg (Rattus norvegicus [2]): 81.8%
- GI50 (NCI-H23 [8]): 17.7 µM
- TGI (NCI-H23 [8]): 43.7 µM
- GI50 (A549): 14.7 µM
- TGI (A549): 43.4 µM
- GI50 (A498 [9]): 26.7 µM
- TGI (A498 [9]): 43.9 µM
- CC50 (A498 [9]): 72.2 µM
- growth at 10 µM (HT-29): 52.7%
- growth at 10 µM (DU-145): 75.2%
- growth at 10 µM (SR): -22.2%
- growth at 10 µM (SF-539): 91.6%
- growth at 10 µM (A498 [3]): 74.3%
- GI50 (HL-60(TB)): 20.3 µM
- TGI (HL-60(TB)): 50 µM
- growth at 10 µM (OVCAR-4): 58.8%
- growth at 10 µM (SN12C): 74.8%
- inhibition in vivo at 20 mg/kg (Rattus norvegicus [4]): 80%
- GI50 (PC-3): 9.21 µM
- TGI (PC-3): 23.9 µM
- CC50 (PC-3): 58.9 µM
- growth at 10 µM (CCRF-CEM): 28%
- growth at 10 µM (SK-MEL-28): 90.2%
- growth at 10 µM (K562 [5]): 25%
- growth at 10 µM (NCI/ADR-RES): 85.7%
- growth at 10 µM (SW-620): 72.2%
- growth at 10 µM (SNB-75): 78.7%
- GI50 (HOP-92): 10.3 µM
- TGI (HOP-92): 23.6 µM
- growth at 10 µM [6]: 82.5%
- growth at 10 µM (786-0): 95.6%
- growth at 10 µM (SF-268): 72.1%
- growth at 10 µM (MCF7): 37.2%
- growth at 10 µM (RPMI-8226): 25.5%
- GI50 (NCI-H522): 18.6 µM
- TGI (NCI-H522): 48.4 µM
- growth at 10 µM (SK-MEL-2): 92.5%

Structure (SMILES): Cc1cc(O)c(C2=NN(c3ccc(S(N)(=O)=O)cc3)C(c3ccc(N(C)C)cc3)C2)c(C)c1Cl (stereo unspecified)
- growth at 10 µM (HCC 2998): 66.5%
- growth at 10 µM (MDA-MB-231): 59%
- growth at 10 µM (HCT-15): 65.2%
- growth at 10 µM (Malme-3M): 103%
- growth at 10 µM (NCI-H23 [1]): 78.8%
- GI50 (K562 [7]): 2.24 µM
- LC50 (K562 [7]): 33.9 µM
- TGI (K562 [7]): 11.5 µM
- growth at 10 µM (LOX IMVI): 52.4%
- inhibition in vivo at 20 mg/kg (Rattus norvegicus [2]): 36.4%
- GI50 (NCI-H23 [8]): 5.82 µM
- LC50 (concentration killing 50% of cells) (NCI-H23 [8]): 47.3 µM
- TGI (NCI-H23 [8]): 19.9 µM
- GI50 (A549): 5.91 µM
- LC50 (A549): 73.4 µM
- TGI (A549): 22.5 µM
- GI50 (A498 [9]): 6.97 µM
- TGI (A498 [9]): 19.3 µM
- CC50 (A498 [9]): 44.2 µM
- growth at 10 µM (HT-29): 55.1%
- growth at 10 µM (DU-145): 49.3%
- growth at 10 µM (SR): -24.1%
- growth at 10 µM (SF-539): 79%
- growth at 10 µM (A498 [3]): 87.2%
- GI50 (HL-60(TB)): 7.84 µM
- TGI (HL-60(TB)): 20.8 µM
- growth at 10 µM (OVCAR-4): 58.9%
- growth at 10 µM (SN12C): 36.1%
- inhibition in vivo at 20 mg/kg (Rattus norvegicus [4]): 33%
- GI50 (PC-3): 4.44 µM
- TGI (PC-3): 16.8 µM
- CC50 (PC-3): 41 µM
- growth at 10 µM (CCRF-CEM): 11.6%
- growth at 10 µM (SK-MEL-28): 76.3%
- growth at 10 µM (K562 [5]): 21%
- growth at 10 µM (NCI/ADR-RES): 80.3%
- growth at 10 µM (SW-620): 48.5%
- growth at 10 µM (SNB-75): 67.4%
- GI50 (HOP-92): 3.74 µM
- LC50 (HOP-92): 41.9 µM
- TGI (HOP-92): 17.6 µM
- growth at 10 µM [6]: 71.2%
- growth at 10 µM (786-0): 43.3%
- growth at 10 µM (SF-268): 61.7%
- growth at 10 µM (MCF7): 13%
- growth at 10 µM (RPMI-8226): -37.6%
- GI50 (NCI-H522): 6.24 µM
- LC50 (NCI-H522): 58.8 µM
- TGI (NCI-H522): 21.6 µM
